Results on one compound are retold here after patent US9062088B2, “CDK-inhibiting pyrrolopyrimidine carboxamide derivative or pharmaceutically acceptable salt thereof, and pharmaceutical composition containing the same as active ingredient for preventing or treating hepatocellular carcinoma” (SNU R&DB Foundation, priority 2010, dated 2015).

In one series the target is T1, Cdk1/cyclin B (Homo sapiens, UniProt P06493).
T1 construct: purchased Upstate
Kind of series: In vitro kinase activity assay, histone H1 phosphorylation by Cdk1/cyclin B. The format is biochemical. The note with it: for Phosphorylation (%) Cdk1: 0 nM = 100%. As for the experimental part:
To kinase assay buffer (50 mM Tris (pH 7.4), 10 mM magnesium chloride, 1 mM EGTA, 40 mM β-glycerophosphate, 0.1 mM Na3VO4, 1 mM DTT, 0.1 μg/mL leupeptin, 0.1 μg/mL pepstatin A, 0.1 μg/mL antipain and 1 mM phenylmethylsulfonyl fluoride) were added 5 μg histone H1 as a substrate, 20 ng Cdk1/cyclin B or 40 ng Cdk2/cyclin A recombinant protein (Upstate, NY, USA) as an enzyme, 2.5 μCi [γ-32P]ATP, and 100 μM MgAc/ATP. The total reaction volume was adjusted to 50 μl. The compound of Example 2 was added to the reaction mixture, followed by inducing kinase reaction at 30° C. for 20 minutes. Upon completion of the reaction, the reaction mixture proceeded to electrophoresis on 12% SDS-polyacrylamide gel. Phosphorylation levels of Cdk1 and Cdk2 over the concentrations of the compound of Example 2 were confirmed by autoradiography, and the results are shown in FIG. 1, FIG. 2, and Table 1.
The intensity of bands was analyzed by densitometry (GS-800, Bio-Rad).

Series [1] deals with Mcl-1, survivin, XIAP mRNA. Kind of series: RT-PCR of Mcl-1, survivin, XIAP mRNA in SNU-354 cells. The conditions noted are these: FIG. 14. The format is cell-based, human. As for the experimental part:
Total RNA was extracted from SNU-354 cells treated with the compound of Example 2 according to the conventional method. For reverse transcription, 5 μg of the extracted RNA and M-MLV reverse transcriptase (Promega Corporation, WI, USA) were used. Reverse Transcription was induced at 37° C. for 1 hour, followed by further reaction at 95° C. for 5 minutes. For PCR, 5 μl of cDNA obtained from the reverse transcription was used as a template and Taq DNA polymerase was used. Total reaction volume was 50 μl. PCR was performed as follows; predenaturation at 95° C. for 5 minutes, denaturation at 95° C. for 1 minute, annealing at 56° C. for 1 minute, polymerization at 72° C. for 1 minute, 30 cycles from denaturation to polymerization, and final extension at 72° C. for 10 minutes. After PCR, the PCR products were analyzed by electrophoresis on 1% agarose gel. The forward primer for Mcl-1 was 5′-CGGTAATCGGACTCAACCTC-3′ (SEQ ID NO: 1) and the reverse primer was 5′-CCT CCT TCT CCG TAG CCA A-3′ (SEQ ID NO: 2). The forward primer for XIAP was 5′-AGTGGTAGTCCTGTTTCAGCATCA-3′ (SEQ ID NO: 3) and the reverse primer was 5′-CCG CAC GGT ATC TCC TTC A-3′ (SEQ ID NO: 4). The forward primer for survivin was 5′-TGC CTG GCA GCC CTT TC-3′ (SEQ ID NO: 5) and the reverse primer was 5′-CCTCCAAGAAGGGCCAGTTC-3′ (SEQ ID NO. 6). […]

Series [2] concerns SNU-354 xenografted tumor. Kind of series: SNU-354 cancer xenograft, tumor growth. It is filed as in vivo. The note with it: 5 times/week for 3 weeks, nude mice. As for the experimental part: (§1) Male nude mice at 5˜6 weeks were purchased from Central Lab. Animal Inc. (Republic of Korea). The mice were raised in the test animal laboratory at College of Pharmacy, Seoul National University. All the experiments with test animals were performed by the protocol set by Institute of Laboratory Animal Resources, Seoul National University. 1×10^7 cells of the human hepatocellular carcinoma cell line SNU-354 were suspended in 200 μl of PBS, which was injected into the right front paw of the mouse by subcutaneous injection, followed by observation until the xenograft tumor grew to 100±30 mm^3. The mice having tumors reaching the proper size were divided into three groups (n=8). One of the groups was used as the control (treated with vehicle) and the other two groups were treated with the compound of Example 2 at the concentrations of 4 mg/kg and 20 mg/kg respectively, once a day for 3 weeks (5 times/week) by intraperitoneal injection. The control group was treated with 5% ethanol and 30% polyethylene glycol 200 (Fluka, Netherlands). The administration schedule was marked on data. Tumor size, body weight and other conditions of the animal were observed every day until the tumor size reached 2000 mm^3. The tumor size was calculated by V=a×b×c×π/6 (a=long axis of the tumor, b=short axis of the tumor, c=height of the tumor). 33 days after the treatment, the mice were sacrificed. […]

A short description of series [3]: Body weight of xenograft mice. It is filed as in vivo, nude mice. The conditions noted are these: 4 mg/kg and 20 mg/kg intraperitoneal; FIG. 21. As for the experimental part: as §1
A further series has as its system normal liver tissues. Kind of series: TUNEL assay and caspase-3 immunohistochemistry of normal liver tissues. The format is in vivo, nude mice. The conditions noted are these: treated mice; FIG. 23-B. As for the experimental part: All the xenografted tumors and liver tissues extracted above were fixed in 36% formaldehyde solution (Junsei Chemical Co., Ltd, Tokyo, JAPAN), followed by paraffin embedding. The embedded tissues were cut into 5 μm sections. H&E staining and TUNEL assay were performed for examining apoptosis with those sections. The expression of cleaved caspase-3 in the tissue section was measured by using cleaved caspase-3 monoclonal antibody (Cell Signaling, MA, USA). ABC peroxidase (Dako Cytomation California, Inc., CA, USA) labeling was performed for immunological sensitization and the results are shown in FIG. 23. As shown in FIG. 23-A, TUNEL positive spots and caspase-3 positive spots were observed more in the group treated with the compound of Example 2 than in the control. […] As shown in FIG. 23-B, it was investigated whether or not the compound of Example 2 could affect normal liver tissues.

Values joined by “and” are separate entries in the source; they are usually repeats but may differ in a detail not shown here. Equal entries are not always repeated.

T1 sequence (P06493 whole entry): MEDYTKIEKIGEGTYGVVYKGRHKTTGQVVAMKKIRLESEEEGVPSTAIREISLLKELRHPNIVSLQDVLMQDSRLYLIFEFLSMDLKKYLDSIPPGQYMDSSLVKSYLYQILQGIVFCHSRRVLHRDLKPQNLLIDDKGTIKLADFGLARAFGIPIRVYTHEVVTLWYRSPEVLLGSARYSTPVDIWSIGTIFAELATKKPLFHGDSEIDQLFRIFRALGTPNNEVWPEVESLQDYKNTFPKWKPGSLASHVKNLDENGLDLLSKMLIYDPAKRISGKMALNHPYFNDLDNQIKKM
T1 sequence (P14635 whole entry partner): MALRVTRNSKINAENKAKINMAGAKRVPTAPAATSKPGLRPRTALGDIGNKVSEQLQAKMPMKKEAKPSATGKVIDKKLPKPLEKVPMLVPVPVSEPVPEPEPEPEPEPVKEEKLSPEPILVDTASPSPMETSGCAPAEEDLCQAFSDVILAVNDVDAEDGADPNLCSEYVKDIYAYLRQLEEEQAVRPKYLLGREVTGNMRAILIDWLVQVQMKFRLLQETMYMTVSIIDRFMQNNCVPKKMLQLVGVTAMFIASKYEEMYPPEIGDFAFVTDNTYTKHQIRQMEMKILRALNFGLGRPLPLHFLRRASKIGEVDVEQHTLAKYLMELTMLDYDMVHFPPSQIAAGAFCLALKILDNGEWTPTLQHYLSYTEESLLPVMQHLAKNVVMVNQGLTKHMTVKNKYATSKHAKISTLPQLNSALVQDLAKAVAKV

Turning to `CC(C)C(=O)OC[C@@H]1O[C@H](n2cnc(N)c3c(C(N)=O)c(Br)nc2-3)[C@H](O)[C@H]1O` [Example 2, ((2S,3R,4R,5S)-5-(4-amino-6-bromo-5-carbamoyl-1H-pyrrolo[2,3-d]pyrimidin-1-yl)-3,4-dihydroxy-tetrahydrofuran-2-yl)methyl isobutyrate], the “Phosphorylation (%) Cdk1” value on Cdk1/cyclin B (10 nM) is 100% and 99.4%; at Cdk1/cyclin B (20 nM), 92.2%; on Cdk1/cyclin B (40 nM), 74.1%; at Cdk1/cyclin B (50 nM), 50%; at Cdk1/cyclin B (60 nM), 41.6%; on Cdk1/cyclin B (80 nM), 15.3%. For the same compound, the “Phosphorylation (%) Cdk1” value at Cdk1/cyclin B (100 nM) was 4.3%. Besides, at Cdk1/cyclin B (histone H1 phosphorylation), the IC50 – broadly, the point on the concentration scale where inhibition reaches its midpoint – is 50 nM. For the same compound, the “Mcl-1, survivin and XIAP mRNA” value in series [1] was “decrease of mRNA”. Also, the “growth of the tumor reduced at average, compared with the control” value turned out to be 15% in series [2] (4 mg/kg/day intraperitoneal) and 47% in series [2] (20 mg/kg/day intraperitoneal). Besides, in series [3], the “weight change of test animals” value is given as “no weight change”. Further, the “apoptosis in normal liver tissues (TUNEL, caspase-3 immunohistochemistry)” value in the series on normal liver tissues is recorded as “apoptosis was not observed at all”.
